Entries after “also recorded” stand apart in the source; their conditions may differ.

Results on 4 substances are retold here after patent US20220324913A1, “ANTIGENIC NEURON SPECIFIC ENOLASE PEPTIDES FOR DIAGNOSING AND TREATING AUTISM” (THE REGENTS OF THE UNIVERSITY OF CALIFORNIA, priority 2019, published 2022).

Common to all, as to type: binding, human
In test [1] the test system is maternal autoantibodies (plasma from mothers of ASD and TD children). Put plainly: ELISA of maternal plasma reactivity to recombinant NSE. The conditions noted are these: for Reactivity observed, number of mothers: plasma 1:500. The method, then:
Once NSE was identified as a viable antigenic candidate by WB, we evaluated a larger sample set for NSE reactivity using an ELISA method. We tested plasma from 418 mothers enrolled in the CHARGE study with at least one child with ASD (n=232) or control samples from mothers of typically developing children (TD; n=186). Microtiter plates were coated with 100 μl of NSE (Novus Biologicals, Littleton, Colo.) at 2 μg/ml in carbonate coating buffer pH 9.6, incubated overnight at 4° C., washed four times with PBST 0.05%, and blocked with 2% Super Block (Thermo Scientific, Rockford, Ill.) for 1 hour at room temperature (RT). The plasma samples were diluted 1:500 and run in duplicate. Following dilution, 100 μl of diluted sample was added to each well, incubated for 1.5 hours, washed 4×, then incubated with 1:10,000 goat anti-human IgG-HRP IgG (Kirkegaard & Perry Laboratories, Inc., Gaithersburg, Mass.) for 1 hour. The plates were then washed and detection was performed by adding 100 μl of BD optEIA liquid substrate for ELISA (BD Biosciences, San Jose, Calif.). After 4 minutes, the reaction was stopped with 50 μl of 2N HCl. The absorbance was measured at 490-450 nm using an iMark Microplate Absorbance Reader (Biorad, Hercules, Calif., USA).
For the ELISA assay, positive cutoff values for reactivity to NSE were determined using a ROC curve. The ROC curve was created by plotting the true positive rate against the false positive rate at various threshold settings. We therefore created our curve using seven positive samples (labeled as +) from mothers that have a child with ASD and were positive by WB (true positive samples) along with the test samples. By using the positive samples as the reference event, the cutoff has greater specificity (less false positives) although sacrificing some sensitivity (limit of detection). The ROC plots sensitivity versus 1−Specificity for each value creating an Area Under the Curve (AUC) that is a representation of the accuracy of the test. Youden's index was used to calculate the cutoff.
NSE was identified by mass spectrometry as a potential target of the maternal autoantibodies and, based on its critical role in neurodevelopment, we chose to further evaluate NSE as a potential MAR ASD biomarker. Recombinant NSE was used to verify maternal autoantibody reactivity first by WB followed by ELISA. […] Therefore, we utilized an approach similar to that used for the seven previously-described MAR autoantigens to probe the samples for differential epitope recognition between ASD and TD groups.

Another test concerns maternal autoantibodies. Briefly: Western blot of recombinant proteins probed with maternal plasma. Particulars: compared with NNE, ALDOC and CKB; plasma 1:800. The method, then:
To test autoantibody reactivity to FMB Fraction #12 that contained proteins between 37-45 kDa, the fraction was probed with maternal plasma samples as described previously (FIG. 1D). In summary, 200 μg of protein were denatured by heating at 100° C. for 10 min in SDS buffer and separated on a 12% SDS-PAGE gel at 200V for 1 hour. Proteins were transferred to a 0.2 μm nitrocellulose membrane overnight (10V for 16 hours) at 4° C. To confirm the transfer, the membrane was stained with Ponceau dye and cut into 3 mm strips that were labeled and blocked with 1% casein buffer. Plasma samples were then diluted (1:400), added to the strips, incubated for 1.5 hours at RT followed by five washes, and incubated with 1:20,000 goat anti-human IgG-HRP for 30 minutes. After five washes, detection was performed by adding 800 μl of Super Signal substrate and strips were placed on a glass plate to be imaged using the FluoroChem 8900 imager. Images were scored as 0 if negative and 1 if positive.
The top 4 commercially available antigens identified by mass spectrometry with a 100 C.I. were selected for further evaluation. To evaluate antibody reactivity against our top hits including NSE, NNE, ALDOC, and CKB, 2 μg protein of recombinant protein (Novus Biologicals, Littleton, Colo.) were probed with diluted maternal plasma (1:800) by WB as described previously. […]
A general note: A western blot detects proteins with antibodies after separation by electrophoresis.

Test [2] has as its system maternal autoantibodies (plasma from mothers of ASD and TD children). Briefly: NSE 15-mer peptide microarray epitope mapping probed with maternal plasma. Particulars: ELISA positive samples, group whose antibodies recognize the sequence. On the technique in general: In an ELISA, binding on a coated surface is turned into a signal by an enzyme label.

For “NSE: recombinant neuron specific enolase protein (Novus Biologicals), target autoantigen of maternal autoantibodies”, the “Reactivity observed, percent of mothers” value in test [1] (mothers that had a child with ASD) is 6.2%; in test [1] (mothers that have a typically developing child (TD)), 5%. In addition, the figures for the “Reactivity observed, number of mothers” value in test [1] (of 186 mothers that have a typically developing child) and in test [1] (of the 232 mothers that had a child with ASD) were 21 and 26, respectively. Besides, in the test on maternal autoantibodies, the “Maternal autoantibody reactivity against recombinant protein” value was “greatest specificity”.

With “VSIEDPFDQDDWAAW (listed as Homo sapiens) [ES 297]”, the Specific binding entry in test [2] (listed as SEQ ID NO:11) is recorded as “recognized by plasma from both sample groups; also recorded: recognized by antibodies in both experimental groups”.

For the substance “VVSIEDPFDQDDWAA (listed as Homo sapiens) [ES 296]”, the Specific binding result in test [2] (listed as SEQ ID NO:10) is “recognized by plasma from both sample groups; also recorded: recognized by antibodies in both experimental groups”.

In the case of “YPVVSIEDPFDQDDW (listed as Homo sapiens) [ES 294]”, the Specific binding result in test [2] (listed as SEQ ID NO:8) is listed as “recognized by plasma from both sample groups; also recorded: recognized by antibodies in both experimental groups”.
